From patent US12404242B2, “Compositions and methods for making and using small molecules in the treatment of cancer” (Reglagene, Inc., priority 2021, dated 2025)
In brackets after ≈: the same amount, converted by molar mass. Like-named read-outs stand apart in the source and are kept apart here.

Assays:
RWPE1 cells = assay: Cell viability (AlamarBlue), RWPE1 normal prostate cells; assay type: cell-based, human; design: key to EC50 (μM) in RWPE1 cells: Inactive: less than 50% inhibition at the highest concentration tested at 50 μM; conditions: 72 hours of treatment, normal prostate cell line
Description: (§1) In another exemplary method, half maximal effective concentration (EC50) was determined for some compounds and their isomers as disclosed herein in a variety of human cancer cell lines. In brief, cells from two prostate cancer cell lines (LNCaP, 22RV1), one glioblastoma cell line (U87), one breast cancer cell line (MCF7), a glioma cell line (LN18), a normal prostate cell line (RWPE1), and a glioblastoma cell line (T98G) were plated in a multi-well plate. After 24 hours, one of the compounds herein was added to the well at increasing concentrations. After 72 hours of treatment, cell viability was assessed using AlamrBlue® (Invitrogen) and fluorescence was read using the CLARIOstar Plus Multilabel Plate Reader (BMG Labtech). Samples were normalized to no treatment controls. EC50 values were determined using GraphPad Prism.

MCF7 cells = assay: Cell viability (AlamarBlue), MCF7 breast cancer cells; assay type: cell-based; conditions: Homo sapiens, 72 hours of treatment
Description: as §1

U87 cells = assay: Cell viability (AlamarBlue), U87 glioblastoma cells; assay type: cell-based, human; conditions: 72 hours of treatment
Method in brief: (§2)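 Cells were plated and, after 24 hours, exposed to the compound at increasing concentrations for 72 hours. Viability was measured by AlamarBlue fluorescence, normalized to untreated controls, and EC50 values were derived from the concentration-response data.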

[1] = Plasma and brain tissue levels after oral dose, brain tumor xenograft mice; assay type: in vivo, CrTac:NCr-Foxn1nu athymic nude mouse; conditions: CrTac:NCr-Foxn1nu athymic nude, single oral dose 100 mg/kg
Description: In another exemplary method, levels of Compound 19A were determined in plasma and brain tissue following administration. For these studies, a CrTac:NCr-Foxn1^nu athymic nude mouse strain was used as an acceptable mouse model. For these experiments, CrTac:NCr-Foxn1^nu athymic nude mouse received […] of tumors implanted into the brain tissues. Compound 19A was then administered to the mice orally as a homogenous suspension in DMSO: (PEG 400: PVP=95:5)=1:4. A single dose of 100 mg/kg of Compound 19A was administered in this manner. Concentrations of the Compound 19A in plasma and brain tissue (after extraction) were measured using HPLC-MS quantitation.
FIG. 51 and Table 8 illustrate increasing concentrations of Compound 19A in both the left, healthy brain tissue and the right experimental brain tissue containing tumor as well as in plasma over time.

22RV1 cells = assay: Cell viability (AlamarBlue), 22RV1 prostate cancer cells; assay type: cell-based, human; conditions: 72 hours of treatment
Method in brief: as §2

LNCaP cells = assay: Cell viability (AlamarBlue), LNCaP prostate cancer cells; assay type: cell-based, human; conditions: Homo sapiens, LNCaP, 72 h, 72 hours of treatment
Method in brief: as §2

[2] = system: LN18 glioblastoma cancer cells; assay: Combination with Temozolomide, Bliss synergy in LN18 cells; assay type: cell-based; conditions: Temozolomide 0 to 1000 uM, compound 0.625 to 10 uM
Description: Synergy was calculated with the Bliss independence model. Compounds were combined at concentrations of 0 to 1000 uM for Temozolomide and 0.625 to 10 uM for compounds 19 and 59.

[3] = system: 22Rv1 prostate cancer cells; assay: Combination with Rabusertib, Bliss synergy in 22Rv1 cells; assay type: cell-based; conditions: Rabusertib 0 to 30 uM, compound 0.625 to 5 uM
Description: Synergy was calculated with the Bliss independence model. Compounds were combined at concentrations of 0 to 30 uM for Rabusertib and 0.625 to 5 uM for compounds 73 and 76.

LN18 cells = assay: Cell viability (AlamarBlue), LN18 glioma cells; assay type: cell-based; conditions: Homo sapiens, LN-18, 72 hours of treatment
Description: as §1

tubulin = assay: Tubulin polymerization assay; assay type: biochemical; conditions: 5 uM (FIG. 41A, 41C) or 1 uM (FIG. 41B)
Description: FIG. 41A-41C represent exemplary experiments illustrating inhibition of tubulin polymerization. FIG. 41A illustrates effects of compounds 19, 73, 86, 93 and 94 at 5 uM concentration. FIG. 41B illustrates effects of compounds 93, 94, 95 and 96 at 1 uM concentration.
FIG. 41C illustrates effects of compounds 73, 86, 87 and 88 at 5 uM concentration in accordance with certain embodiments of the present disclosure. Colchicine and vincristine are positive controls.
FIG. 42A-42B represent exemplary experiments illustrating inhibition of tubulin polymerization. FIG. 42A illustrates effects of compound 19 at 0.3, 1, 3 and 6 uM concentrations.
FIG. 42B illustrates effects of compound 73 at […] concentration in accordance with certain embodiments of the present disclosure. Colchicine and nocodazole are positive controls.
In another exemplary method, the effect of the compounds herein on tubulin polymerization was determined. FIG. 41A illustrates effects of compounds 19, 73, 86, 93 and 94 at 5 uM concentration, FIG. 41B illustrates effects of compounds 93, 94, 95 and 96 at 1 uM concentration, or FIG. 41C illustrates effects of compounds 87 and 88 at 5 uM concentration in accordance with certain embodiments of the present disclosure. Colchicine and vincristine are positive controls.
The dose dependent effect of compounds 19 and 73 on tubulin polymerization was also determined. FIG. 42A illustrates effects of compound 19 at 0.3, 1, 3 and 6 uM concentrations, and FIG. 42B illustrates effects of compound 73 at 0.1, 0.3, 1, 3 and 5 uM concentration in accordance with certain embodiments of the present disclosure. Colchicine and nocodazole are positive controls.

[4] = Kinetic solubility in aqueous PBS buffer (HPLC-MS); assay type: physicochemical; conditions: kinetic from dmso stock, DMSO stock mixed with aqueous PBS buffer, filtered, read-out: Kinetic Solubility
Method in brief: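 A concentrated DMSO stock was mixed with aqueous PBS buffer and filtered. The filtrate was quantified against an HPLC-MS calibration curve.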

T98G cells = assay: Cell viability (AlamarBlue), T98G glioblastoma cells; assay type: cell-based; conditions: Homo sapiens, 72 hours of treatment
Description: as §1

[5] = mouse, brain tissue (left, healthy), read-out: Brain Tissue Healthy, Left concentration
[6] = mouse, brain tissue (right, containing tumor), read-out: Brain Tissue Tumor, right concentration
[7] = plasma, tumor-bearing nude mouse, read-out: Plasma concentration

EC50 (U87 cells; Homo sapiens, U-87 MG, 72 h)	EC50 (LN18 cells)	solubility kinetic [4]	SMILES	effect on tubulin polymerization (tubulin)	also measured
–	–	–	COC1CC(C(=O)NC(=O)Nc2ccc(Oc3ccc(Cl)cn3)c(C)c2)C1 (single isomer, unassigned) [Compound 19A, 1-{4-[(5-chloropyridin-2-yl)oxy]-3-methylphenyl}-3-(3-methoxycyclobutanecarbonyl) urea]	–	EC50 (μM) in RWPE1 cells (RWPE1 cells): Inactive; EC50 (MCF7 cells): 2.8 µM; EC50 (U87 cells): 2.2 µM; concentration at 0.5 h [1, 5]: 767 ng/g; concentration at 1 h [1, 5]: 1230 ng/g; concentration at 6 h [1, 5]: 1460 ng/g; concentration at 0.5 h [1, 6]: 828 ng/g; concentration at 1 h [1, 6]: 1460 ng/g; concentration at 6 h [1, 6]: 1520 ng/g; concentration at 0.5 h [1, 7]: 973 ng/mL; concentration at 1 h [1, 7]: 1340 ng/mL; concentration at 6 h [1, 7]: 1510 ng/mL; EC50 (22RV1 cells): 0.95 µM; EC50 (LNCaP cells): 0.87 µM
0.002 µM	–	–	COC1CC(C(=O)NC(=O)Nc2ccc(Oc3nc(C)c(C)s3)c(C)c2)C1 (stereo not shown) [Compound 59, N-((4-((4,5-dimethylthiazol-2-yl)oxy)-3-methylphenyl)carbamoyl)-3-methoxycyclobutane-1-carboxamide]	–	EC50 (22RV1 cells; Homo sapiens, 22Rv1, 72 h): 0.08 µM; EC50 (LNCaP cells): 0.27 µM; Bliss Synergy value, combination with Temozolomide ([2]; LN18 cells, Bliss independence model): 20.0; effect of combination with Temozolomide on cancer cell viability [2]: synergistic decrease in cancer cell viability
0.1 µM	–	–	COC1CC(C(=O)NC(=O)Nc2cc(C)c(Oc3ccc(Cl)cn3)c(F)c2)C1 (stereo not shown) [Compound 76, N-((4-((5-chloropyridin-2-yl)oxy)-3-fluoro-5-methylphenyl)carbamoyl)-3-methoxycyclobutane-1-carboxamide]	–	Bliss Synergy value, combination with Rabusertib ([3]; 22Rv1 cells, Bliss independence model): 15.3; effect of combination with Rabusertib on cancer cell viability [3]: synergistic decrease in cancer cell viability
0.16 µM	0.01 µM	–	COC12CC(C(=O)NC(=O)Nc3ccc(Oc4ccc(Cl)cn4)c(C)c3)(C1)C2 [Compound 84, N-((4-((5-chloropyridin-2-yl)oxy)-3-methylphenyl)carbamoyl)-3-methoxybicyclo[1.1.1]pentane-1-carboxamide]	–	–
0.26 µM	–	–	COC12CC(C(=O)NC(=O)Nc3ccc(Oc4ccccn4)c(C)c3)(C1)C2 [Compound 86, 3-methoxy-N-((3-methyl-4-(pyridin-2-yloxy)phenyl)carbamoyl)bicyclo[1.1.1]pentane-1-carboxamide]	significantly inhibit tubulin polymerization	–
1.2 µM	–	27.5 µM (≈ 10.1 µg/mL)	COC12CC(C(=O)NC(=O)Nc3ccc(Oc4ncccn4)c(C)c3)(C1)C2 [Compound 87, 3-methoxy-N-((3-methyl-4-(pyrimidin-2-yloxy)phenyl)carbamoyl)bicyclo[1.1.1]pentane-1-carboxamide]	significantly inhibit tubulin polymerization	–
1.45 µM	–	10.9 µM (≈ 4.21 µg/mL)	COC12CC(C(=O)NC(=O)Nc3ccc(Oc4ncc(F)cn4)c(C)c3)(C1)C2 [Compound 88, N-((4-((5-fluoropyrimidin-2-yl)oxy)-3-methylphenyl)carbamoyl)-3-methoxybicyclo[1.1.1]pentane-1-carboxamide]	significantly inhibit tubulin polymerization	–
0.065 µM	0.034 µM	2.17 µM (≈ 0.913 µg/mL)	COC12CC(C(=O)NC(=O)Nc3cc(C)c(Oc4ncc(Cl)cn4)c(F)c3)(C1)C2 [Compound 90, N-((4-((5-chloropyrimidin-2-yl)oxy)-3-fluoro-5-methylphenyl)carbamoyl)-3-methoxybicyclo[1.1.1]pentane-1-carboxamide]	–	EC50 (T98G cells): 0.0384 µM
0.63 µM	0.087 µM	–	COC12CC(C(=O)NC(=O)Nc3cc(C)c(Oc4ccc(F)cn4)c(F)c3)(C1)C2 [Compound 91, N-((3-fluoro-4-((5-fluoropyridin-2-yl)oxy)-5-methylphenyl)carbamoyl)-3-methoxybicyclo[1.1.1]pentane-1-carboxamide]	–	EC50 (T98G cells): 0.167 µM
0.045 µM	–	11.8 µM (≈ 4.19 µg/mL)	COC1CC(C(=O)NC(=O)Nc2ccc(C)c(Oc3ccccn3)c2)C1 (stereo not shown) [Compound 94, 3-methoxy-N-((4-methyl-3-(pyridin-2-yloxy)phenyl)carbamoyl)cyclobutane-1-carboxamide]	significantly inhibit tubulin polymerization	–
0.014 µM	–	7.2 µM (≈ 2.69 µg/mL)	COC1CC(C(=O)NC(=O)Nc2ccc(C)c(Oc3ccc(F)cn3)c2)C1 (stereo not shown) [Compound 95, N-((3-((5-fluoropyridin-2-yl)oxy)-4-methylphenyl)carbamoyl)-3-methoxycyclobutane-1-carboxamide]	significantly inhibit tubulin polymerization	–
0.035 µM	–	14.8 µM (≈ 5.27 µg/mL)	COC1CC(C(=O)NC(=O)Nc2ccc(C)c(Oc3ncccn3)c2)C1 (stereo not shown) [Compound 96, 3-methoxy-N-((4-methyl-3-(pyrimidin-2-yloxy)phenyl)carbamoyl)cyclobutane-1-carboxamide]	significantly inhibit tubulin polymerization	–
0.02 µM	0.011 µM	5.8 µM (≈ 2.14 µg/mL)	COC12CC(C(=O)NC(=O)Nc3ccc(C)c(Oc4ncccn4)c3)(C1)C2 [Compound 97, 3-methoxy-N-((4-methyl-3-(pyrimidin-2-yloxy)phenyl)carbamoyl)bicyclo[1.1.1]pentane-1-carboxamide]	–	EC50 (T98G cells): 0.026 µM
